Experimental data: the NIST ThermoML archive (doi:10.1021/je0601457)

Experiment: xn = mol fraction of the nth substance listed

Cc1cnccn1 [2-methylpyrazine] + O=C=O
Fluid (supercritical or subcritical phases), Linear displacement technique
Details | mass density [kg/m3]
329.15 K, 13140 kPa, x1 = 0.017 | 626
329.15 K, 14240 kPa, x1 = 0.017 | 652
331.05 K, 10450 kPa, x1 = 0.081 | 785
331.05 K, 10590 kPa, x1 = 0.081 | 785
331.65 K, 6380 kPa, x1 = 0.624 | 896
331.65 K, 9900 kPa, x1 = 0.624 | 901
331.65 K, 13480 kPa, x1 = 0.624 | 904
331.65 K, 18240 kPa, x1 = 0.624 | 910
332.35 K, 11210 kPa, x1 = 0.023 | 375
332.35 K, 12340 kPa, x1 = 0.023 | 438
332.35 K, 13280 kPa, x1 = 0.023 | 470
332.35 K, 15340 kPa, x1 = 0.023 | 519
332.35 K, 16620 kPa, x1 = 0.023 | 540
332.45 K, 12000 kPa, x1 = 0.122 | 863
332.45 K, 13550 kPa, x1 = 0.122 | 881
332.45 K, 15590 kPa, x1 = 0.122 | 901
333.55 K, 11790 kPa, x1 = 0.033 | 617
333.55 K, 12720 kPa, x1 = 0.033 | 679
333.55 K, 13340 kPa, x1 = 0.033 | 719
333.55 K, 15340 kPa, x1 = 0.033 | 780
335.65 K, 9480 kPa, x1 = 0.264 | 822
335.65 K, 10900 kPa, x1 = 0.264 | 829
335.65 K, 14380 kPa, x1 = 0.264 | 842
335.65 K, 17720 kPa, x1 = 0.264 | 852
336.95 K, 12340 kPa, x1 = 0.062 | 716
336.95 K, 13280 kPa, x1 = 0.062 | 743
336.95 K, 14520 kPa, x1 = 0.062 | 775
336.95 K, 16970 kPa, x1 = 0.062 | 820
337.05 K, 3620 kPa, x1 = 0.857 | 892
337.05 K, 5550 kPa, x1 = 0.857 | 893
337.05 K, 9000 kPa, x1 = 0.857 | 897
337.05 K, 13590 kPa, x1 = 0.857 | 901
338.55 K, 12240 kPa, x1 = 0.081 | 752
338.55 K, 13210 kPa, x1 = 0.081 | 765
338.55 K, 14930 kPa, x1 = 0.081 | 774
339.25 K, 10930 kPa, x1 = 0.156 | 847
339.25 K, 13760 kPa, x1 = 0.156 | 869
339.25 K, 17210 kPa, x1 = 0.156 | 884
340.45 K, 11280 kPa, x1 = 0.017 | 346
340.45 K, 11480 kPa, x1 = 0.017 | 371
340.45 K, 11970 kPa, x1 = 0.017 | 408
340.45 K, 12790 kPa, x1 = 0.017 | 455
341.55 K, 14410 kPa, x1 = 0.091 | 782
341.55 K, 15410 kPa, x1 = 0.091 | 801
341.55 K, 17340 kPa, x1 = 0.091 | 828
342.35 K, 11760 kPa, x1 = 0.023 | 283
342.35 K, 11970 kPa, x1 = 0.023 | 291
342.35 K, 12340 kPa, x1 = 0.023 | 300
344.65 K, 12480 kPa, x1 = 0.033 | 482
344.65 K, 13170 kPa, x1 = 0.033 | 529
344.65 K, 13860 kPa, x1 = 0.033 | 578
344.65 K, 14660 kPa, x1 = 0.033 | 620
344.65 K, 15310 kPa, x1 = 0.033 | 649
344.65 K, 16550 kPa, x1 = 0.033 | 683
344.95 K, 11340 kPa, x1 = 0.339 | 920
344.95 K, 18720 kPa, x1 = 0.339 | 941
345.05 K, 10790 kPa, x1 = 0.264 | 808
345.05 K, 12720 kPa, x1 = 0.264 | 818
345.05 K, 15280 kPa, x1 = 0.264 | 828
345.05 K, 19170 kPa, x1 = 0.264 | 842
346.15 K, 14380 kPa, x1 = 0.039 | 582
346.15 K, 15070 kPa, x1 = 0.039 | 617
348.65 K, 7590 kPa, x1 = 0.624 | 879
348.65 K, 11830 kPa, x1 = 0.624 | 884
348.65 K, 16240 kPa, x1 = 0.624 | 890
349.45 K, 14100 kPa, x1 = 0.122 | 787
349.45 K, 15520 kPa, x1 = 0.122 | 810
349.45 K, 16310 kPa, x1 = 0.122 | 824
349.45 K, 18790 kPa, x1 = 0.122 | 852
349.75 K, 14100 kPa, x1 = 0.062 | 691
349.75 K, 15100 kPa, x1 = 0.062 | 722
351.15 K, 13970 kPa, x1 = 0.081 | 778
351.15 K, 14720 kPa, x1 = 0.081 | 780
351.15 K, 16720 kPa, x1 = 0.081 | 783
351.35 K, 3760 kPa, x1 = 0.857 | 878
351.35 K, 7000 kPa, x1 = 0.857 | 882
351.35 K, 11210 kPa, x1 = 0.857 | 888
351.35 K, 17340 kPa, x1 = 0.857 | 893
352.75 K, 14140 kPa, x1 = 0.039 | 495
352.75 K, 14790 kPa, x1 = 0.039 | 525
352.75 K, 15410 kPa, x1 = 0.039 | 543
355.05 K, 11030 kPa, x1 = 0.339 | 918
355.05 K, 14660 kPa, x1 = 0.339 | 927
355.05 K, 17280 kPa, x1 = 0.339 | 939
355.15 K, 13690 kPa, x1 = 0.156 | 808
355.15 K, 14590 kPa, x1 = 0.156 | 821
355.15 K, 16930 kPa, x1 = 0.156 | 843
358.25 K, 15690 kPa, x1 = 0.091 | 696
358.25 K, 16450 kPa, x1 = 0.091 | 714
358.25 K, 17690 kPa, x1 = 0.091 | 743
358.25 K, 19210 kPa, x1 = 0.091 | 767
358.25 K, 20690 kPa, x1 = 0.091 | 787
365.65 K, 17000 kPa, x1 = 0.122 | 746
365.65 K, 18100 kPa, x1 = 0.122 | 769
365.65 K, 19170 kPa, x1 = 0.122 | 786
369.15 K, 15970 kPa, x1 = 0.091 | 633
369.15 K, 16660 kPa, x1 = 0.091 | 659
369.15 K, 17340 kPa, x1 = 0.091 | 681
369.15 K, 18100 kPa, x1 = 0.091 | 701
369.15 K, 19000 kPa, x1 = 0.091 | 721
371.75 K, 4380 kPa, x1 = 0.857 | 861
371.75 K, 8450 kPa, x1 = 0.857 | 865
371.75 K, 15830 kPa, x1 = 0.857 | 875
371.75 K, 28450 kPa, x1 = 0.857 | 889
374.25 K, 14030 kPa, x1 = 0.033 | 346
374.25 K, 14550 kPa, x1 = 0.033 | 367
374.25 K, 15000 kPa, x1 = 0.033 | 384
374.25 K, 16240 kPa, x1 = 0.033 | 425
374.55 K, 17210 kPa, x1 = 0.081 | 740
374.55 K, 19210 kPa, x1 = 0.081 | 768
374.75 K, 16100 kPa, x1 = 0.062 | 592
374.75 K, 16720 kPa, x1 = 0.062 | 626
374.75 K, 16970 kPa, x1 = 0.062 | 639
375.55 K, 16790 kPa, x1 = 0.156 | 765
375.55 K, 18100 kPa, x1 = 0.156 | 789
375.55 K, 19970 kPa, x1 = 0.156 | 811
375.75 K, 17000 kPa, x1 = 0.264 | 758
375.75 K, 20720 kPa, x1 = 0.264 | 778
375.75 K, 24590 kPa, x1 = 0.264 | 797
376.35 K, 14860 kPa, x1 = 0.039 | 367
376.35 K, 15760 kPa, x1 = 0.039 | 406
376.65 K, 7970 kPa, x1 = 0.624 | 846
376.65 K, 10970 kPa, x1 = 0.624 | 852
376.65 K, 14930 kPa, x1 = 0.624 | 859
376.65 K, 19340 kPa, x1 = 0.624 | 864
379.45 K, 17410 kPa, x1 = 0.091 | 598
379.45 K, 20340 kPa, x1 = 0.091 | 675
379.45 K, 21900 kPa, x1 = 0.091 | 705
379.45 K, 24210 kPa, x1 = 0.091 | 731
387.35 K, 15480 kPa, x1 = 0.339 | 899
387.35 K, 18070 kPa, x1 = 0.339 | 912
387.35 K, 22790 kPa, x1 = 0.339 | 933

Liquid, linear displacement
Details | mass density [kg/m3]
331.05 K, x1 = 0.081 | 785
331.65 K, x1 = 0.624 | 892
332.35 K, x1 = 0.023 | 323
332.45 K, x1 = 0.122 | 840
333.55 K, x1 = 0.033 | 574
335.65 K, x1 = 0.264 | 822
336.95 K, x1 = 0.062 | 689
337.05 K, x1 = 0.857 | 888
338.55 K, x1 = 0.081 | 746
339.25 K, x1 = 0.156 | 843
341.55 K, x1 = 0.091 | 731
344.95 K, x1 = 0.339 | 913
345.05 K, x1 = 0.264 | 808
346.15 K, x1 = 0.039 | 462
348.65 K, x1 = 0.624 | 875
349.45 K, x1 = 0.122 | 770
349.75 K, x1 = 0.062 | 660
351.35 K, x1 = 0.857 | 878
355.05 K, x1 = 0.339 | 914
355.15 K, x1 = 0.156 | 799
358.25 K, x1 = 0.091 | 656
365.65 K, x1 = 0.122 | 707
371.75 K, x1 = 0.857 | 858
375.55 K, x1 = 0.156 | 745
375.75 K, x1 = 0.264 | 746
376.65 K, x1 = 0.624 | 845
387.35 K, x1 = 0.339 | 891
